In US20180118718A1, “Substituted Quinoxaline Derivatives” (Selvita S.A., priority 2015, published 2018) one finds IC50 data, which are given here for 31 compounds.

Counter-ions that a name gives are not always drawn.

This test concerns the target T1, Human recombinant His-tagged PFKFB3 (Homo sapiens, UniProt Q16875).
T1 construct: His; made in house
As to the kind of experiment: PFKFB3 IC50 Determination Assay (in vitro kinase assay, modified ADP-Glo system). The format is biochemical. The note with it: ATP 20 μM and fructose-6-phosphate 2 μM (Km), 25 nM PFKFB3, 2 h, rt, ADP-Glo luminescence. On the procedure:
PFKFB3 IC50 Determination Assay
In vitro kinase assay used to determine IC50 values for tested inhibitors is based on a modified ADP-Glo™ system (Promega) and consists of two parts:
1. Kinase reaction—performed in optimized conditions. At this step PFKFB3 phosphorylates its substrate Fructose-6-phosphate using ATP as a source of phosphate to produce Fructose-2,6-bisphosphate and ADP. Reaction is performed at Km values for ATP and substrate using optimized buffer composition and time of the reaction. Human recombinant His-tagged PFKFB3 (PFKFB3 BATCH II SEC) with confirmed activity is produced and purified in-house. 2. Detection of ADP as a product of the reaction using ADP-Glo™ system. This part is conducted by using the commercially available kit ADP-Glo™ Kinase Assay (Promega, cat. No# V9103) according to manufacturer's instruction, modified by 5x dilutions of assay reagents (both ADP-Glo™ Reagent and Kinase Detection Solution).
Test compounds are dissolved in DMSO and then transferred to the V-bottom 96-well plate.
15 μL per well of Mix 1 is transferred to assay wells of 96-well white plate. […] Total reaction volume is 30 μL per well. Samples are tested in duplicates. Final concentration of DMSO in the reaction is 6.7%. Conditions needed for performing PFKFB3 (PFKFB3 BATCH II SEC) in vitro kinase assay are given below:
This protocol is based on Technical Bulletin, ADP-Glo™ Kinase Assay (Promega) and is adapted to 96-well plate containing 30 μL reaction mixture:
30 μL of 5x diluted ADP-Glo™ Reagent is added to each well of 96-well plate containing 30 μL of reaction mixture. The plate is incubated for 90 minutes on a shaker at RT. 60 μL of 5x diluted Kinase Detection Solution is added to each well of 96-well plate containing 60 μL of the solution (ratio of kinase reaction volume to ADP-Glo™ Reagent volume to Kinase Detection Solution volume is maintained at 1:1:2). Plate is incubated for 40 minutes on a shaker at RT, protected from light. Luminescence is measured in the plate reader Synergy 2 (BioTek).
Luminescent readouts for compounds tested in 10 concentrations (routinely from 100 μM to […], […] serial dilutions) in duplicates, as well as for positive control, are first normalized to no-substrate negative control by its subtraction. In the next step, % of normalized positive control is calculated for each data point and plotted against test compound concentration:
% of control percent of positive control normalized to no-substrate negative control Lumcpd luminescence of test compound Lumneg luminescence of no-substrate negative control Lumpos luminescence of positive control
IC50 parameter is determined by the GraphPad Prism 5.0 software [log(inhibitor) vs. response −Variable slope (four parameters)].
(In general: ADP-Glo first removes unused ATP, then detects ADP through luciferase.)

T1 sequence (Q16875 whole entry): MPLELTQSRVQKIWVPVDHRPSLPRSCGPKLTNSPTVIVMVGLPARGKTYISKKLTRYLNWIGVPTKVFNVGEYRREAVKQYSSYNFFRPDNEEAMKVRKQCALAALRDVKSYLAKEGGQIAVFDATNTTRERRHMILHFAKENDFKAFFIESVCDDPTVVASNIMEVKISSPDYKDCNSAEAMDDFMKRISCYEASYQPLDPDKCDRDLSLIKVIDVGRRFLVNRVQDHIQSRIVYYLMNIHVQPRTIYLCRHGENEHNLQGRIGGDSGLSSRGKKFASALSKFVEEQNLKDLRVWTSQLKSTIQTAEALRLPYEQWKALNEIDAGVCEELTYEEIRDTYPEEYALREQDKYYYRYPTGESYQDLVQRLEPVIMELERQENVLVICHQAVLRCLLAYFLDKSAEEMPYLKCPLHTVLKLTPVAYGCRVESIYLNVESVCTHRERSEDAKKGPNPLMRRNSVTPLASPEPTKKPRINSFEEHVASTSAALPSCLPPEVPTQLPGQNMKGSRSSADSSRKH

For the compound `Cn1ccc2ccc(-c3cc(N4CCc5ccncc54)cc4nccnc34)cc21` [Example 2, 5-(1-Methyl-1H-indol-6-yl)-7-{1H,2H,3H-pyrrolo[2,3-c]pyridin-1-yl}quinoxaline], the IC50 – broadly, the concentration that gives 50% inhibition – was in the range of 0.001 to 1 µM. Regarding `COc1ccc(Cl)c(-c2cc(Nc3cnccc3S(C)(=O)=O)cc3nccnc23)c1` [Example 5, 8-(2-Chloro-5-methoxyphenyl)-N-(4-methanesulfonylpyridin-3-yl)quinoxalin-6-amine], the IC50 fell in the range of 1 to 10 µM.

Take `Cn1ccc2ccc(-c3cc(Nc4cccnc4S(C)(=O)=O)cc4nccnc34)cc21` [Example 6, N-(2-Methanesulfonylpyridin-3-yl)-8-(1-methyl-1H-indol-6-yl)quinoxalin-6-amine]: the IC50 fell in the range of 0.001 to 1 µM. Under `Cn1ccc2ccc(-c3cc(Nc4cc(Br)ccc4S(C)(=O)=O)cc4nccnc34)cc21` [Example 10, N-(5-Bromo-2-methanesulfonylphenyl)-8-(1-methyl-1H-indol-6-yl)quinoxalin-6-amine] stands 0.001 to 1 µM; under `Cn1ccc2ccc(-c3cc(Nc4ccc[nH]c4=O)cc4nccnc34)cc21` [Example 14, 3-{[8-(1-Methyl-1H-indol-6-yl)quinoxalin-6-yl]amino}pyridin-2-ol], 0.001 to 1 µM; under `Cn1ccc2ccc(-c3cc(Nc4ccccc4S(=O)(=O)N4CCNCC4)cc4nccnc34)cc21` [Example 15, 8-(1-Methyl-1H-indol-6-yl)-N-[2-(piperazine-1-sulfonyl)phenyl]quinoxalin-6-amine trifluoroacetate], 1 to 10 µM. Turning to `Cn1ccc2ccc(-c3cc(Nc4cccnc4N)cc4nccnc34)cc21` [Example 17, 3-N-[8-(1-methyl-1H-indol-6-yl)quinoxalin-6-yl]pyridine-2,3-diamine], the IC50 was 1 to 10 µM.

Turning to `Cn1ccc2ccc(-c3cc(Nc4ccccc4S(C)(=O)=O)cc4nccnc34)nc21` [Example 21, N-(2-Methanesulfonylphenyl)-8-{1-methyl-1H-pyrrolo[2,3-b]pyridin-6-yl}quinoxalin-6-amine trifluoroacetate], the IC50 fell in the range of 0.001 to 1 µM. Consider `Cc1coc2ccc(-c3cc(Nc4cnccc4C#N)cc4nccnc34)cc12` [Example 24, 3-{[8-(3-methyl-1-benzofuran-5-yl)quinoxalin-6-yl]amino}pyridine-4-carbonitrile], for which the IC50 lay in the range of 0.001 to 1 µM. Under `Cn1ccc2ccc(-c3cc(Nc4cc(C#N)ccc4S(C)(=O)=O)cc4nccnc34)cc21` [Example 25, 4-Methanesulfonyl-3-{[8-(1-methyl-1H-indol-6-yl)quinoxalin-6-yl]amino}benzonitrile] stands 0.001 to 1 µM; under `Cc1coc2ccc(-c3cc(Nc4cnccc4C(N)=O)cc4nccnc34)cc12` [Example 26, 3-{[8-(3-Methyl-1-benzofuran-5-yl)quinoxalin-6-yl]amino}pyridine-4-carboxamide], 0.001 to 1 µM. Consider `Cn1ccc2ccc(-c3cc(Nc4ncncc4S(C)(=O)=O)cc4nccnc34)cc21` [Example 27, N-(5-Methanesulfonylpyrimidin-4-yl)-8-(1-methyl-1H-indol-6-yl)quinoxalin-6-amine], for which the 50% inhibitory concentration (IC50) was 1 to 10 µM. In the case of `Cn1ccc2cc(-c3cc(Nc4cnccc4C#N)cc4nccnc34)ccc21` [Example 28, 3-{[8-(1-Methyl-1H-indol-5-yl)quinoxalin-6-yl]amino}pyridine-4-carbonitrile], the IC50 lay in the range of 10 to 100 µM.

`Cn1ccc2cc(-c3cc(Nc4cnccc4C(N)=O)cc4nccnc34)ccc21` [Example 29, 3-{[8-(1-Methyl-1H-indol-5-yl)quinoxalin-6-yl]amino}pyridine-4-carboxamide]: the IC50 was in the range of 1 to 10 µM. As to `Cn1ccc2cc(-c3cc(Nc4cnccc4Cl)cc4nccnc34)ccc21` [Example 30, N-(4-Chloropyridin-3-yl)-8-(1-methyl-1H-indol-5-yl)quinoxalin-6-amine], the IC50 fell in the range of 10 to 100 µM. With `Cn1cc(-c2ccncc2Nc2cc(-c3ccc4c(ccn4C)c3)c3nccnc3c2)cn1` [Example 31, 8-(1-Methyl-1H-indol-5-yl)-N-[4-(1-methyl-1H-pyrazol-4-yl)pyridin-3-yl]quinoxalin-6-amine], the 50% inhibitory concentration (IC50) lay in the range of 10 to 100 µM. Regarding `CN1CCN(c2ccncc2Nc2cc(-c3ccc4c(ccn4C)c3)c3nccnc3c2)CC1` [Example 32, 8-(1-Methyl-1H-indol-5-yl)-N-[4-(4-methylpiperazin-1-yl)pyridin-3-yl]quinoxalin-6-amine], the IC50 lay in the range of 1 to 10 µM. For `Cn1ccc2cc(-c3cc(Nc4cnccc4-c4cncnc4)cc4nccnc34)ccc21` [Example 33, 8-(1-Methyl-1H-indol-5-yl)-N-[4-(pyrimidin-5-yl)pyridin-3-yl]quinoxalin-6-amine], the IC50 lay within 10 to 100 µM. In the case of `Cn1ccc2cc(-c3cc(N4CCc5ccncc54)cc4nccnc34)ccc21` [Example 34, 5-(1-Methyl-1H-indol-5-yl)-7-{1H,2H,3H-pyrrolo[2,3-c]pyridin-1-yl}quinoxaline], the half-maximal inhibitory concentration (IC50) fell in the range of 10 to 100 µM. Regarding `Cn1ccc2ccc(-c3cc(Nc4cc([N+](=O)[O-])ccc4S(C)(=O)=O)cc4nccnc34)cc21` [Example 35, N-(2-Methanesulfonyl-5-nitrophenyl)-8-(1-methylindol-6-yl)quinoxalin-6-amine], the IC50 fell in the range of 0.001 to 1 µM. Turning to `Cn1ccc2ccc(-c3cc(Nc4cc(N)ccc4S(C)(=O)=O)cc4nccnc34)cc21` [Example 36, 6-Methanesulfonyl-N1-[8-(1-methyl-1H-indol-6-yl)quinoxalin-6-yl]benzene-1,3-diamine], the IC50 was 0.001 to 1 µM.

Take `Cn1ccc2cc(-c3cc(Nc4cc(CN)ccc4S(C)(=O)=O)cc4nccnc34)ccc21` [Example 38, N-[5-(Aminomethyl)-2-methanesulfonylphenyl]-8-(1-methyl-1H-indol-5-yl)quinoxalin-6-amine]: the IC50 lay in the range of 10 to 100 µM. Under `Cc1ccc(C)c(-c2cc(Nc3cnccc3S(C)(=O)=O)cc3nccnc23)c1` [Example 39, 8-(2,5-Dimethylphenyl)-N-(4-methanesulfonylpyridin-3-yl)quinoxalin-6-amine] stands 0.001 to 1 µM; under `CN1CCN(c2ccncc2Nc2cc(-c3ccc4ccn(C)c4c3)c3nccnc3c2)CC1` [Example 40, 8-(1-Methyl-1H-indol-6-yl)-N-[4-(4-methylpiperazin-1-yl)pyridin-3-yl]quinoxalin-6-amine], 0.001 to 1 µM; under `CC(=O)Nc1ccc(S(C)(=O)=O)c(Nc2cc(-c3ccc4ccn(C)c4c3)c3nccnc3c2)c1` [Example 41, N-(4-Methanesulfonyl-3-{[8-(1-methyl-1H-indol-6-yl)quinoxalin-6-yl]amino}phenyl)acetamide], 1 to 10 µM.

`Cn1ccc2ccc(-c3cc(Nc4cc(-n5ccnc5)ccc4S(C)(=O)=O)cc4nccnc34)cc21` [Example 42, N-[5-(1H-Imidazol-1-yl)-2-methanesulfonylphenyl]-8-(1-methyl-1H-indol-6-yl)quinoxalin-6-amine]: the IC50 was 0.001 to 1 µM. Under `Cn1ccc2ccc(-c3cc(Nc4cc(-c5nn[nH]n5)ccc4S(C)(=O)=O)cc4nccnc34)cc21` [Example 43, N-[2-Methanesulfonyl-5-(2H-1,2,3,4-tetrazol-5-yl)phenyl]-8-(1-methyl-1H-indol-6-yl)quinoxalin-6-amine] stands 0.001 to 1 µM. Under `Cn1ccc2ccc(-c3cc(Nc4c[n+]([O-])ccc4S(C)(=O)=O)cc4nccnc34)cc21` [Example 44, 4-Methanesulfonyl-3-{[8-(1-methyl-1H-indol-6-yl)quinoxalin-6-yl]amino}pyridin-1-ium-1-olate] stands 0.001 to 1 µM; under `CN1CCN(c2ccc(S(C)(=O)=O)c(Nc3cc(-c4ccc5ccn(C)c5c4)c4nccnc4c3)c2)CC1` [Example 45, N-[2-Methanesulfonyl-5-(4-methylpiperazin-1-yl)phenyl]-8-(1-methyl-1H-indol-6-yl)quinoxalin-6-amine], 1 to 10 µM. The result for `CC(=O)N1CCN(c2ccc(S(C)(=O)=O)c(Nc3cc(-c4ccc5ccn(C)c5c4)c4nccnc4c3)c2)CC1` [Example 46, 1-[4-(4-Methanesulfonyl-3-{[8-(1-methyl-1H-indol-6-yl)quinoxalin-6-yl]amino}phenyl)piperazin-1-yl]ethan-1-one] reads 1 to 10 µM; that for `Cn1ccc2ccc(-c3cc(Oc4cnccc4C#N)cc4nccnc34)cc21` [Example 47, 3-{[8-(1-Methyl-1H-indol-6-yl)quinoxalin-6-yl]oxy}pyridine-4-carbonitrile], 0.001 to 1 µM.
